# Experimental data published in ChEMBL document CHEMBL1138512, “A class of 2,4-bisanilinopyrimidine Aurora A inhibitors with unusually high selectivity against Aurora B” (J Med Chem, 2009).
# Legend:
# Aurora kinase B [1] = target: T1, Aurora kinase B (Homo sapiens, UniProt Q96GD4); assay: Inhibition of N-terminal flag-tagged Aurora B expressed in Escherichia coli BL21-DE3 by ELISA
# [2] = target: T2, Cyclin-dependent kinase 2 (Homo sapiens, UniProt P24941); assay: Inhibition of CDK2/cyclin A
# HCT-116 = assay: Antiproliferative activity against human HCT116 cells after 4 days by celltiter assay; assay type: functional, cell-based; settings: HCT-116, 96 h
# HT-29 = assay: Antiproliferative activity against human HT-29 cells after 4 days by celltiter assay; assay type: functional, cell-based; settings: HT-29, 96 h
# [3] = target: Tyrosine-protein kinase ABL1 (Homo sapiens) (UniProt P00519); assay: Inhibition of ABL1 at 1 uM
# [4] = target: Activin receptor type-1B (Homo sapiens) (UniProt P36896); assay: Inhibition of ALK4 at 1 uM
# [5] = target: Beta-adrenergic receptor kinase 1 (Homo sapiens) (UniProt P25098); assay: Inhibition of GRK2 at 1 uM
# [6] = target: Aurora kinase A (Homo sapiens) (UniProt O14965); assay: Inhibition of Aurora A at 1 uM
# Aurora kinase B [7] = target: T1, Aurora kinase B; assay: Inhibition of Aurora B at 1 uM
# [8] = target: Aurora kinase C (Homo sapiens) (UniProt Q9UQB9); assay: Inhibition of Aurora C at 1 uM
# [9] = target: Tyrosine-protein kinase receptor UFO (Homo sapiens) (UniProt P30530); assay: Inhibition of Axl at 1 uM
# [10] = target: Calcium/calmodulin-dependent protein kinase type 1D (Homo sapiens) (UniProt Q8IU85); assay: Inhibition of CaMK1delta at 1 uM
# [11] = target: Serine/threonine-protein kinase MRCK alpha (Homo sapiens) (UniProt Q5VT25); assay: Inhibition of MRCKalpha at 1 uM
# [12] = target: Cyclin-dependent kinase 1/cyclin B1 (Homo sapiens) (UniProt P06493+P14635); assay: Inhibition of CDK1/cyclin B at 1 uM
# [13] = target: T2, Cyclin-dependent kinase 2; assay: Inhibition of CDK2/cyclin A at 1 uM
# [14] = target: Cyclin-dependent kinase 5/CDK5 activator 1 (Homo sapiens) (UniProt Q00535+Q15078); assay: Inhibition of CDK5/p25 at 1 uM; assay type: protein-complex assay
# [15] = target: Serine/threonine-protein kinase Chk1 (Homo sapiens) (UniProt O14757); assay: Inhibition of CHK1 at 1 uM
# [16] = target: Dual specificity protein kinase CLK1 (Homo sapiens) (UniProt P49759); assay: Inhibition of CLK1 at 1 uM
# [17] = target: Casein kinase I isoform alpha (Homo sapiens) (UniProt P48729); assay: Inhibition of CK1alpha1 at 1 uM
# [18] = target: Casein kinase I isoform delta (Homo sapiens) (UniProt P48730); assay: Inhibition of CK1delta at 1 uM
# [19] = target: Casein kinase I isoform gamma-2 (Homo sapiens) (UniProt P78368); assay: Inhibition of CK1gamma2 at 1 uM
# [20] = target: Casein kinase II subunit alpha (Homo sapiens) (UniProt P68400); assay: Inhibition of CK2alpha1 at 1 uM
# [21] = target: Dual specificity tyrosine-phosphorylation-regulated kinase 3 (Homo sapiens) (UniProt O43781); assay: Inhibition of DYRK3 at 1 uM
# [22] = target: Eukaryotic elongation factor 2 kinase (Homo sapiens) (UniProt O00418); assay: Inhibition of EEF2K at 1 uM
# [23] = target: Epidermal growth factor receptor (Homo sapiens) (UniProt P00533); assay: Inhibition of ErbB1 at 1 uM
# [24] = target: Ephrin type-A receptor 1 (Homo sapiens) (UniProt P21709); assay: Inhibition of EPHA1 at 1 uM
# [25] = target: Ephrin type-B receptor 1 (Homo sapiens) (UniProt P54762); assay: Inhibition of EPHB1 at 1 uM
# [26] = target: Receptor-type tyrosine-protein kinase FLT3 (Homo sapiens) (UniProt P36888); assay: Inhibition of FLT3 at 1 uM
# [27] = target: Serine/threonine-protein kinase mTOR (Homo sapiens) (UniProt P42345); assay: Inhibition of mTOR at 1 uM
# [28] = target: Glycogen synthase kinase-3 beta (Homo sapiens) (UniProt P49841); assay: Inhibition of GSK3-beta at 1 uM
# [29] = target: Inhibitor of nuclear factor kappa-B kinase subunit beta (Homo sapiens) (UniProt O14920); assay: Inhibition of IKK-beta at 1 uM
# [30] = target: Insulin receptor (Homo sapiens) (UniProt P06213); assay: Inhibition of INSR at 1 uM
# [31] = target: Tyrosine-protein kinase JAK2 (Homo sapiens) (UniProt O60674); assay: Inhibition of JAK2 at 1 uM
# [32] = target: Dual specificity mitogen-activated protein kinase kinase 1 (Homo sapiens) (UniProt Q02750); assay: Inhibition of MEK1 at 1 uM
# [33] = target: Mitogen-activated protein kinase 14 (Homo sapiens) (UniProt Q16539); assay: Inhibition of P38alpha at 1 uM
# [34] = target: MAP kinase-activated protein kinase 2 (Homo sapiens) (UniProt P49137); assay: Inhibition of MAPKAPK2 at 1 uM
# [35] = target: Hepatocyte growth factor receptor (Homo sapiens) (UniProt P08581); assay: Inhibition of c-Met at 1 uM
# [36] = target: Serine/threonine-protein kinase Nek2 (Homo sapiens) (UniProt P51955); assay: Inhibition of NEK2 at 1 uM
# [37] = target: Serine/threonine-protein kinase Nek6 (Homo sapiens) (UniProt Q9HC98); assay: Inhibition of NEK6 at 1 uM
# [38] = target: Serine/threonine-protein kinase pim-1 (Homo sapiens) (UniProt P11309); assay: Inhibition of PIM1 at 1 uM
# [39] = target: Serine/threonine-protein kinase PLK2 (Homo sapiens) (UniProt Q9NYY3); assay: Inhibition of PLK2 at 1 uM
# [40] = target: Serine/threonine-protein kinase PLK3 (Homo sapiens) (UniProt Q9H4B4); assay: Inhibition of PLK3 at 1 uM
# [41] = target: cAMP-dependent protein kinase catalytic subunit alpha (Homo sapiens) (UniProt P17612); assay: Inhibition of PRKACA at 1 uM
# [42] = target: Ribosomal protein S6 kinase alpha-1 (Homo sapiens) (UniProt Q15418); assay: Inhibition of RSK1 at 1 uM
# [43] = target: Mitogen-activated protein kinase kinase kinase 9 (Homo sapiens) (UniProt P80192); assay: Inhibition of MLK1 at 1 uM
# [44] = target: Mitogen-activated protein kinase kinase kinase kinase 2 (Homo sapiens) (UniProt Q12851); assay: Inhibition of GCK at 1 uM
# [45] = target: 3-phosphoinositide-dependent protein kinase 1 (Homo sapiens) (UniProt O15530); assay: Inhibition of PDK1 at 1 uM
# Aurora kinase B [46] = target: T1, Aurora kinase B; assay: Inhibition of Aurora B in human HCT116 cells assessed as complete loss of phospho-histone H3 staining by immunofluorescence assay
# T1 sequence (Q96GD4 whole entry): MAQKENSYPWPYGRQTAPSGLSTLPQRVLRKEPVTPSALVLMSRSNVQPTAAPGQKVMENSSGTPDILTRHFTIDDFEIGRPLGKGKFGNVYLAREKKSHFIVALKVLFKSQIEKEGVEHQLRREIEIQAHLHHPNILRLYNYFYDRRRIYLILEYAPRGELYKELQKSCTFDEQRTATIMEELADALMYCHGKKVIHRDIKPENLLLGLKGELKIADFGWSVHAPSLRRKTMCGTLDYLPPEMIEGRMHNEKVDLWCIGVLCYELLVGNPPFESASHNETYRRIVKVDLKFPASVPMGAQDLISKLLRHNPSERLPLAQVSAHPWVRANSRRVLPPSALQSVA
# Mitogen-activated protein kinase kinase kinase kinase 2 (Homo sapiens), sequence (Q12851 whole entry): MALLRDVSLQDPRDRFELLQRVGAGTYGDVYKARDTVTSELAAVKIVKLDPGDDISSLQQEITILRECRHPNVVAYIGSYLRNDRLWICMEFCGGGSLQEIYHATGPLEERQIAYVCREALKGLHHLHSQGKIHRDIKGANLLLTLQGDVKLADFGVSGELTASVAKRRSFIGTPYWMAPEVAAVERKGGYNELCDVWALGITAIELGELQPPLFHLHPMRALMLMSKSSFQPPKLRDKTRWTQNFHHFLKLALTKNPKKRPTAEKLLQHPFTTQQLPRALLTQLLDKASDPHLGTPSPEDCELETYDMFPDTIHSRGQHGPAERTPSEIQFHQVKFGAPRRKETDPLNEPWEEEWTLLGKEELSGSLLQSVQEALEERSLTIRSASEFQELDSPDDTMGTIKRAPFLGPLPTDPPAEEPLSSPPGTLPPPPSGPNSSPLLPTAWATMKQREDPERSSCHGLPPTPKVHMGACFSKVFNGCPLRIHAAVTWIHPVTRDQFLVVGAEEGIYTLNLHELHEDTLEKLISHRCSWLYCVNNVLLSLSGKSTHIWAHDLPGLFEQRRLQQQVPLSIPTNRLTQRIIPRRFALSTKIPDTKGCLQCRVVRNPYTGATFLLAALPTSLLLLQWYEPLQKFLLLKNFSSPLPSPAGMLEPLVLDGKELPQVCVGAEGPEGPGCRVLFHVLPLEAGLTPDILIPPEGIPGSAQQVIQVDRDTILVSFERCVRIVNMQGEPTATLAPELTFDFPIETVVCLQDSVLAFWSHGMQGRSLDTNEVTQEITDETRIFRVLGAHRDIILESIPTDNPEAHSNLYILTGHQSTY
# 3-phosphoinositide-dependent protein kinase 1 (Homo sapiens), sequence (O15530 whole entry, looked up): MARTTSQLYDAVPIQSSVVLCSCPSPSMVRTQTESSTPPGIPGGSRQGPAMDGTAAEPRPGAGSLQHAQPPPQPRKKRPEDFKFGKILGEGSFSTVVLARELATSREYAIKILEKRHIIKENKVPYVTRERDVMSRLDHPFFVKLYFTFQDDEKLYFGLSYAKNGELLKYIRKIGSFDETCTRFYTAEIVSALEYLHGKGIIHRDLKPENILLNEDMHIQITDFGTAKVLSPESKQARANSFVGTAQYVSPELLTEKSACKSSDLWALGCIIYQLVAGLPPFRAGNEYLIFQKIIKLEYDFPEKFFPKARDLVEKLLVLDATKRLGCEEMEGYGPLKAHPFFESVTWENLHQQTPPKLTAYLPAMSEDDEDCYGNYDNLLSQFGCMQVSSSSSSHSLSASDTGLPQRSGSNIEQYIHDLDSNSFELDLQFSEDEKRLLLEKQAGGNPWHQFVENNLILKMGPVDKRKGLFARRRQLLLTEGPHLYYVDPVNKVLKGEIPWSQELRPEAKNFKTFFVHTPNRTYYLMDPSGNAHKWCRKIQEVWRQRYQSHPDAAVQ
# Glycogen synthase kinase-3 beta (Homo sapiens), sequence (P49841 whole entry, looked up): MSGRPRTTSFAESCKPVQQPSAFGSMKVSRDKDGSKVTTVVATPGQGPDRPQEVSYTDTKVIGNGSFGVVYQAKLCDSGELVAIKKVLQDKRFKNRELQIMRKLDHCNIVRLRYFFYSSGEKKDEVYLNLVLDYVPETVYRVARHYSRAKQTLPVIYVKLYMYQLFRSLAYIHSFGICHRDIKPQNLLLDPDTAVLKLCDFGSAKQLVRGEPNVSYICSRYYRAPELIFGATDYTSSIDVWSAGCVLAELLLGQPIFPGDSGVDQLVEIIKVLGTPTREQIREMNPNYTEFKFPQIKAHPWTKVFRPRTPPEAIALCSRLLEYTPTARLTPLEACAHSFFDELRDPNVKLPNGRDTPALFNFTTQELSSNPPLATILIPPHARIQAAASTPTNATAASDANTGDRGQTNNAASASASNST
# Tyrosine-protein kinase JAK2 (Homo sapiens), sequence (O60674 whole entry): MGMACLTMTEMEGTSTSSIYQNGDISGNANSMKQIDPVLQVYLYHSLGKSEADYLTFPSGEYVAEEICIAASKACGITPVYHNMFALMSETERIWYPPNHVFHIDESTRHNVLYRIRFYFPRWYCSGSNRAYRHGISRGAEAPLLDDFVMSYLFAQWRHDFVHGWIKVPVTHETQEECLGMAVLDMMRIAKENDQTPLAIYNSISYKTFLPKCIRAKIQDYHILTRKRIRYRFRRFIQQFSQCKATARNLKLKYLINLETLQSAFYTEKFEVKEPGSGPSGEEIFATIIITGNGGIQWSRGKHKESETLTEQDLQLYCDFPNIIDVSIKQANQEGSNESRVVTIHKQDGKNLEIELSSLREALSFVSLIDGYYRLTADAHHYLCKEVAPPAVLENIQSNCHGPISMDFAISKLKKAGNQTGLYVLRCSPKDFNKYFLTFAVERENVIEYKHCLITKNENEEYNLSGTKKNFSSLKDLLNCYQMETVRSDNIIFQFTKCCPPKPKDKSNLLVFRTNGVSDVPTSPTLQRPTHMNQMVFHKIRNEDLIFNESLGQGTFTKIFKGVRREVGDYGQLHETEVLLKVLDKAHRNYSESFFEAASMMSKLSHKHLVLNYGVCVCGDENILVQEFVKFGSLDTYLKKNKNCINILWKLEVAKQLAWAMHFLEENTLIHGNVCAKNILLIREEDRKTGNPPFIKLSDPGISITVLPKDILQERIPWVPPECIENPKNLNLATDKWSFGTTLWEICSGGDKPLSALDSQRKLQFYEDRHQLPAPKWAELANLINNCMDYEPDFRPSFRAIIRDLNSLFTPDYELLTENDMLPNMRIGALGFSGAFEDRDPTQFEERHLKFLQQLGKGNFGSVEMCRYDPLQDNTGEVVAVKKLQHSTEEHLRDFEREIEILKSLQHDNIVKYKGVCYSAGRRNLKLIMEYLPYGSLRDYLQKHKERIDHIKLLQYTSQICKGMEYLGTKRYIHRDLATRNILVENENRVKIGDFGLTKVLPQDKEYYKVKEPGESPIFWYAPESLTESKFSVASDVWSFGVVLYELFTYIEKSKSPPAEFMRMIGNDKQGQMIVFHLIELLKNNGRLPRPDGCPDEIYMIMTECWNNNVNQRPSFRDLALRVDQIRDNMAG
# Eukaryotic elongation factor 2 kinase (Homo sapiens), sequence (O00418 whole entry): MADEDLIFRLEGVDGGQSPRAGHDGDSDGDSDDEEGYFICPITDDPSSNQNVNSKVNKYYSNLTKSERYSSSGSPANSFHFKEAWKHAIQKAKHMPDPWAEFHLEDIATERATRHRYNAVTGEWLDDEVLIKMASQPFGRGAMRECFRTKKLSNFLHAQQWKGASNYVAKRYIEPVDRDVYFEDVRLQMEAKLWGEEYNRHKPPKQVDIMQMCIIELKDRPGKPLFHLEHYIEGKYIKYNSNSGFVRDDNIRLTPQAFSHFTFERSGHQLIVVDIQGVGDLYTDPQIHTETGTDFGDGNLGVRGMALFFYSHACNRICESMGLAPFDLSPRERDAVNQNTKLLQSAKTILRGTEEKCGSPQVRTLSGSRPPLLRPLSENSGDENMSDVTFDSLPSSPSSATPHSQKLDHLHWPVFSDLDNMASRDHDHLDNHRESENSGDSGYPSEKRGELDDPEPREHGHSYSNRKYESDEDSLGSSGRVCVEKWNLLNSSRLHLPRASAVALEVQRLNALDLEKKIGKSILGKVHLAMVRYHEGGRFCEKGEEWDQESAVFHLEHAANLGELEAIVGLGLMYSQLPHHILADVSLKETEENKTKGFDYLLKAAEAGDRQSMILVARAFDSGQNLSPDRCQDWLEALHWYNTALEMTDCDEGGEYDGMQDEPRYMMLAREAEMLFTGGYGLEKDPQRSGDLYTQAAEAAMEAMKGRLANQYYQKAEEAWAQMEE
# Cyclin-dependent kinase 1/cyclin B1 (Homo sapiens), sequence (P06493 whole entry, looked up): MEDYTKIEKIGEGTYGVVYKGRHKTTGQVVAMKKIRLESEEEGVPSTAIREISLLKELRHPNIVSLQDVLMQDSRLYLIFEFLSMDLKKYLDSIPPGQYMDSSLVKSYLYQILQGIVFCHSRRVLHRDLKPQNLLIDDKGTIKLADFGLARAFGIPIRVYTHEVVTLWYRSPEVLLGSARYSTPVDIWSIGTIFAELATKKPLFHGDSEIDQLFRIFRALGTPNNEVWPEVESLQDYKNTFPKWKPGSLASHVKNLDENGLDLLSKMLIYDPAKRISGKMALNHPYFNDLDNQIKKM
# Cyclin-dependent kinase 1/cyclin B1 (Homo sapiens), sequence (P14635 whole entry, looked up): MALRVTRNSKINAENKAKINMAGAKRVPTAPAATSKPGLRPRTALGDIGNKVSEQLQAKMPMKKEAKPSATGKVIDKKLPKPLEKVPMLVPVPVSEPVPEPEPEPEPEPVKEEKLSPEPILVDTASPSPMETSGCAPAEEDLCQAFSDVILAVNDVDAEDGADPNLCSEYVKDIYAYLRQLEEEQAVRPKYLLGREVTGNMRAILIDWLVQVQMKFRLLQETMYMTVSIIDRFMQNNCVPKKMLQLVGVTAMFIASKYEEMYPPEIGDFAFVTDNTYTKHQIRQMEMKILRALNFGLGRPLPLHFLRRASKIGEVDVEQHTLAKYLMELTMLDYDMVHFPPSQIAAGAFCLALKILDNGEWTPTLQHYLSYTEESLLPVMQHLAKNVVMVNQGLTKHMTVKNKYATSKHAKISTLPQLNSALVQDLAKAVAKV
structure (smiles),measurement,setting,value
CC(=O)N1CCN(C(=O)Cc2ccc(Nc3ncc(F)c(Nc4ccc(C(=O)Nc5ccccc5Cl)cc4)n3)cc2)CC1,IC50,Aurora kinase B [1],3.7 µM
same,IC50,[2],> 16 µM
same,IC50,HCT-116,0.64 µM
same,IC50,HT-29,6.2 µM
same,inhibition,[3],33%
same,inhibition,[4],11%
same,inhibition,[5],8%
same,inhibition,[6],103%
same,inhibition,Aurora kinase B [7],59%
same,inhibition,[8],36%
same,inhibition,[9],46%
same,inhibition,[10],18%
same,inhibition,[11],11%
same,inhibition,[12],15%
same,inhibition,[13],15%
same,inhibition,[14],7%
same,inhibition,[15],14%
same,inhibition,[16],13%
same,inhibition,[17],3%
same,inhibition,[18],11%
same,inhibition,[19],10%
same,inhibition,[20],16%
same,inhibition,[21],5%
same,inhibition,[22],5%
same,inhibition,[23],5%
same,inhibition,[24],34%
same,inhibition,[25],25%
same,inhibition,[26],91%
same,inhibition,[27],11%
same,inhibition,[28],30%
same,inhibition,[29],39%
same,inhibition,[30],16%
same,inhibition,[31],78%
same,inhibition,[32],21%
same,inhibition,[33],28%
same,inhibition,[34],9%
same,inhibition,[35],14%
same,inhibition,[36],25%
same,inhibition,[37],8%
same,inhibition,[38],2%
same,inhibition,[39],12%
same,inhibition,[40],-3%
same,inhibition,[41],7%
same,inhibition,[42],23%
same,inhibition,[43],41%
same,inhibition,[44],10%
same,inhibition,[45],19%
same,IC50,Aurora kinase B [46],> 25 µM
